Reference: the supplement of paper PMC6045584
± gives the standard deviation of the averaged measurements.

What follows are test systems tested with O=C(O)C1(C(=O)O)CCC1.[NH2-].[NH2-].[Pt+2] [CARBOPLATIN] (assay: surviving fraction relative to DMSO-only wells; higher = less growth inhibition). Conditions: 1 nM; exposure time: 5 days.
Outline: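 Inhibitors were tested at 0.5, 1, 5, 10, 50, 100, 500 and 1000 nM, applied continuously for five days beginning 24 hours after log-phase tumour cells were seeded at 250–500 per well in 384-well plates. CellTiter-Glo luminescence served as the viability measure, expressed as surviving fraction against the median of DMSO-only wells. Each line, screened three times, was kept only with replicate Pearson r >0.7 and median Z' >0.3.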
Work on VCAP PROSTATE yielded a surviving fraction of 0.996 ± 0.04.

Same assay, conditions: 5 nM; exposure time: 5 days
CADOES1 SOFT TISSUE showed a surviving fraction of 0.934 ± 0.052.
SAOS2 BONE showed a surviving fraction of 1.18 ± 0.059.
For MDAMB436 BREAST, the surviving fraction was 0.998 ± 0.15.
93VU HEADNECK was tested, and the surviving fraction was 1.26 ± 0.097.
Test System KPD BONE has a surviving fraction of 1.12 ± 0.033.
SYO1 SYNOVIAL gave a surviving fraction of 1.06 ± 0.027.
With BT20 BREAST the surviving fraction was 1.39 ± 0.49.
SUM44 BREAST showed a surviving fraction of 1.16 ± 0.23.
Test System CAL120 BREAST has a surviving fraction of 1.02 ± 0.04.
CHLA90 AUTONOMIC GANGLIA showed a surviving fraction of 0.923 ± 0.058.
With HCC1806 BREAST the surviving fraction was 1.1 ± 0.15.
HCC78 LUNG showed a surviving fraction of 1.2 ± 0.18.
In the case of MFM223 BREAST, the surviving fraction is reported as 1.22 ± 0.18.
SG43 HEADNECK was tested, and the surviving fraction was 0.915 ± 0.18.
HOS BONE gave a surviving fraction of 1.04 ± 0.03.
Test System MDAMB468 BREAST has a surviving fraction of 1.07 ± 0.032.
Work on SG27 HEADNECK yielded a surviving fraction of 1.12 ± 0.1.
With ZR751 BREAST the surviving fraction was 1.14 ± 0.13.
In the case of HSSYII SYNOVIAL, the surviving fraction is reported as 0.975 ± 0.023.
MG63 BONE showed a surviving fraction of 1.08 ± 0.031.
HS57T BREAST was tested, and the surviving fraction was 1.09 ± 0.028.
SUM159 BREAST showed a surviving fraction of 1.1 ± 0.016.
For HCC1395 BREAST, the surviving fraction was 1.16 ± 0.071.
In the case of SUM149.B1*.S BREAST, the surviving fraction is reported as 1.12 ± 0.07.
MDAMB453 BREAST showed a surviving fraction of 1.15 ± 0.024.
Test System SCC90 HEADNECK has a surviving fraction of 1.12 ± 0.18.
Test System HMLE3 BREAST has a surviving fraction of 1.11 ± 0.06.
HCC70 BREAST gave a surviving fraction of 1.13 ± 0.14.
For LNCAP PROSTATE, the surviving fraction was 0.981 ± 0.023.
Work on HCT15 LARGE INTESTINE yielded a surviving fraction of 1.04 ± 0.065.
MHM BONE gave a surviving fraction of 1.08 ± 0.044.
VCAP PROSTATE was tested, and the surviving fraction was 1.11 ± 0.072.

Same assay, conditions: 10 nM; exposure time: 5 days
With CADOES1 SOFT TISSUE the surviving fraction was 0.987 ± 0.15.
Test System SAOS2 BONE has a surviving fraction of 1.16 ± 0.073.
Work on MDAMB436 BREAST yielded a surviving fraction of 0.924 ± 0.11.
Work on 93VU HEADNECK yielded a surviving fraction of 1.24 ± 0.21.
In the case of KPD BONE, the surviving fraction is reported as 1.05 ± 0.051.
Test System SYO1 SYNOVIAL has a surviving fraction of 0.9793 ± 0.0044.
BT20 BREAST gave a surviving fraction of 1.24 ± 0.04.
With SUM44 BREAST the surviving fraction was 1.01 ± 0.2.
For CAL120 BREAST, the surviving fraction was 0.977 ± 0.027.
CHLA90 AUTONOMIC GANGLIA showed a surviving fraction of 0.917 ± 0.045.
Work on HCC1806 BREAST yielded a surviving fraction of 1.2 ± 0.012.
With HCC78 LUNG the surviving fraction was 0.951 ± 0.25.
In the case of MFM223 BREAST, the surviving fraction is reported as 1.15 ± 0.18.
Test System SG43 HEADNECK has a surviving fraction of 1.15 ± 0.23.
With HOS BONE the surviving fraction was 1.04 ± 0.02.
With MDAMB468 BREAST the surviving fraction was 0.991 ± 0.046.
SG27 HEADNECK gave a surviving fraction of 1.04 ± 0.038.
For ZR751 BREAST, the surviving fraction was 1.18 ± 0.23.
In the case of HSSYII SYNOVIAL, the surviving fraction is reported as 0.963 ± 0.089.
Work on MG63 BONE yielded a surviving fraction of 1.07 ± 0.045.
In the case of HS57T BREAST, the surviving fraction is reported as 1.12 ± 0.029.
For SUM159 BREAST, the surviving fraction was 1.09 ± 0.024.
With HCC1395 BREAST the surviving fraction was 1.198 ± 0.0097.
SUM149.B1*.S BREAST showed a surviving fraction of 1.07 ± 0.025.
Work on MDAMB453 BREAST yielded a surviving fraction of 1.1 ± 0.076.
SCC90 HEADNECK showed a surviving fraction of 1.11 ± 0.034.
Test System HMLE3 BREAST has a surviving fraction of 1.18 ± 0.092.
Work on HCC70 BREAST yielded a surviving fraction of 1.13 ± 0.05.
Test System LNCAP PROSTATE has a surviving fraction of 1.03 ± 0.086.
For HCT15 LARGE INTESTINE, the surviving fraction was 1.03 ± 0.096.
MHM BONE was tested, and the surviving fraction was 1.06 ± 0.058.
